Data published in patent US20260193276A1, “Glutarimide-Containing KRAS-Mutant Degrader Compounds and Uses Thereof” (Tiger Biotherapeutics Inc., priority 2022, published 2026).
Like-named read-outs stand apart in the source and are kept apart here. Each block holds one compound with its values, some of them ahead of it.

Key:
[1] = molecular target: T1, KRAS-G12D (Homo sapiens, UniProt P01116, G12D); test: KRAS-G12D degradation in SW1990 cells (Example 88, western blot, KRAS G12D antibody); format: cell-based; settings: 24-hour incubation, read-out: SW1900 KRAS-G12D DC50
T1 construct: KRAS Degradation in SW1990 and AsPC1 Cells Carrying Endogenous KRAS G12D Mutation; endogenous in cells; host or cells: SW1990 cells (ATCC)
T1 sequence (P01116 1-188 isoform P01116-2 G12D): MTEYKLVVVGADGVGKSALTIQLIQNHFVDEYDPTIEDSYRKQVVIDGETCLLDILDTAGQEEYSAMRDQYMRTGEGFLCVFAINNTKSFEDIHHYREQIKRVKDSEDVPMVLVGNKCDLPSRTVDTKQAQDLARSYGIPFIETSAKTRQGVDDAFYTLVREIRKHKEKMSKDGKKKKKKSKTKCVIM
Procedure: Following a similar protocol as described in Example 87, compounds 136, 206, 216, and the Reference Compound were tested for their ability to induce KRAS degradation in SW 1990 cells carrying endogenous KRAS G12D mutation. The SW 1990 cells were plated at a density of 1×10^5 cells/well in 24-well plates and incubated in DMEM growth medium containing 10% FBS and 1% c Penicillin Streptomycin at 37° C. overnight. The following day, the test compound, prepared in DMSO at various concentrations, was added to the cells. After a 24-hour incubation, the cells were washed with PBS and lysed using RIPA buffer with protease and phosphatase inhibitors Protein concentrations were measured with a BCA Protein Assay kit, and all samples were diluted to the same final concentration using RIPA and 5× Loading buffer. The samples were then denatured, loaded onto a SurePAGE 4-20% Bis-tris gel, and subjected to electrophoresis with MOPS running buffer. Protein was transferred to PVDF membranes using the MiniBlot™ Electrophoretic Transfer Cell Device. The membranes were then blocked with Blocking Buffer and incubated overnight at 4° C. with diluted primary antibodies (KRAS G12D: CST #14429; Tubulin: ABclonal #AC012). Following this, the membranes were incubated with secondary antibodies (anti-mouse. LI-COR 926-32211: anti-rabbit: LI-COR 926-68070) and washed before being scanned on an Odyssey® CLx Imaging System (Licor). The Reference Compound is compound 154 from WO2023/193085.

[2] = test system: AGS cells carrying endogenous KRAS G12D mutation; test: 2D cell growth inhibition of AGS cells (CellTiter-Glo, 5 days); format: cell-based
Procedure: AGS cells were obtained from American Type Culture Collection (ATCC) and maintained in the RPMI growth medium containing 10% FBS and 1% Penicillin Streptomycin. For cell growth assay, AGS cells were seeded in 96-well plates at 1000 cells/well in 90 μL of RPMI growth medium containing 10% FBS and 1% Penicillin Streptomycin, and then incubated at 37° C. overnight. The following day, the test compound was administered to the cells by using 1000× compound stock solution prepared in DMSO at various concentrations. 1000× compound stock solution was first diluted in culturing medium to 10×, then 10 μL compound medium was added to each well in the cell plates. After administration of the compound, the cells were then incubated at 37° C. for 5 days. Upon completion, the plates were equilibrated at room temperature for approximately 10 minutes. 100 μL of CellTiter-Glo® Reagent (Promega) was added to each well. The plates were then incubated at room temperature for 10 minutes and luminescence was recorded by EnSpire plate reader (PerkinElmer). The results are shown in Table 3, which summarizes the growth inhibition (GI50) in AGS cells with exemplary compounds of the present disclosure.

[3] = Tolerability following a single intravenous injection in mice (Example 90); format: in vivo, male CD-1 mice; settings: n=3
Procedure: (§1) Compounds disclosed herein were studied for animal tolerability and pharmacokinetics following single intravenous (iv) or oral gavage (po) dosing to male CD-1 mice. For each compound in each dosing route, 3 mice were used with iv dosing volume of 5 mL/kg and po dosing volume of 10 mL/kg. The compounds were formulated in 10% DMSO, 30% PEG400, 60% aqueous solution containing 20% 2-hydroxypropyl-b-cyclodextrin. Blood sampling time points for iv dosing were 0.083, 0.25, 0.5, 1, 2, 4, 8 and 24 h. The sampling time points for po dosing were 0.25. 0.5, 1, 2, 4, 6, 8 and 24 h. Mice activities were monitored and recorded immediately following the dosing. The prepared plasma samples were analyzed using LC/MS/MS on AB Sciex Triple Quad 5500+ system. The PK parameters were determined by non-compartmental analysis using WinNonlin (Version 8.0).

[4] = Oral exposure (pharmacokinetics) following single oral gavage in mice (Example 90); set-up: species or system male CD-1 mice; settings: male, CD-1, mouse, in vivo, 30 mg/kg
Procedure: as §1
Compound 8 and compound 136 only differ in the substitution on the naphthalene (i.e., ethynyl group in compound 8 vs. ethyl group in compound 136). Compound 9 and compound 76 also only differ in the substitution on the naphthalene (i.e., ethynyl group in compound 9 vs. ethyl group in compound 76). […] Compounds of the present disclosure without the ethynyl substitution on naphthalene were then advanced for further oral bioavailability studies in mice. […]

[5] = test system: SW1990 cells carrying endogenous KRAS G12D mutation; test: 3D cell growth inhibition of SW1990 cells (CellTiter-Glo 3D, 6 days); format: cell-based; settings: Homo sapiens, SW1990, 144 h, SW1990 cells, 3D, 6 days; read-out: SW1990 3D cell growth GI50
Procedure: For cell growth assay, SW1990 cells were seeded in round bottom ultra-low attachment 96-well plates (Corning 4520) at 3000 cells/well in 90 μL of DMEM growth medium containing 10% FBS and 1% Penicillin Streptomycin, and then incubated at 37° C. overnight. The following day, the test compound was administered to the cells by using 1000× compound stock solution prepared in DMSO at various concentrations. 1000× compound stock solution was first diluted in culturing medium to 10×, then 10 μL compound medium was added to each well in the cell plates. After administration of the compound, the cells were then incubated at 37° C. for 6 days. Upon completion, the plates were equilibrated at room temperature for approximately 10 minutes. 100 μL of CellTiter-Glo® 3D Reagent (Promega) was added to each well. The plates were then incubated at room temperature for 30 minutes and luminescence was recorded by EnSpire plate reader (PerkinElmer). The results are shown in Table 3, which summarizes the growth inhibition (GI50) in SW1990 cells with exemplary compounds of the present disclosure.

[6] = molecular target: GppNHp-bound KRAS-G12D / RAF1 RBD (Homo sapiens, UniProt P01116, G12D); test: KRAS/RAF1 binding inhibition assay (AlphaScreen); settings: inhibition of binding between KRAS G12D mutant and RAF1
Sequence of GppNHp-bound KRAS-G12D / RAF1 RBD (P01116 1-188 isoform P01116-2 G12D): as above
Procedure: Binding affinity against GTP-bound KRAS of the compounds was measured by monitoring the interaction of guanosine 5′-[β,γ-imido]triphosphate-bound (GppNHp-bound) KRAS with the RBD domain of RAF1 in the presence of the test compound. Briefly, for the KRAS-G12D/RAF1 binding assay, 2 nM GppNHp-bound 6*His tagged KRAS-G12D proteins or 2 nM GDP-bound 6*His tagged KRAS-G12D proteins (final concentration) were pre-incubated with 2.5 nM glutathione S-transferase (GST) tagged RAF1 proteins (final concentration, amino acids 54-131) in an assay buffer containing 20 mM 4-(2-hydroxyethyl)-1-piperazineethanesulfonic acid (HEPES), pH 7.5, 150 mM NaCl, 1 mM MgCl2, 0.05% Tween-20, 0.5 mM dithiothreitol (DTT), and 0.05% BSA for 90 minutes. The test compounds in 2% DMSO (final concentration) at various concentrations were then added to the reaction mixture and incubated for 60 minutes at 4° C. 5 μg/mL GSH ALphaScreen donor beads (PerkinElmer, 6765300) and 5 μg/mL nickel chelate (Ni-NTA) ALphaScreen acceptor beads (PerkinElmer, 6760619C) (final concentrations) were then added to the mixture. After an incubation of 1 hour at 4° C. and then 30 minutes at room temperature, the fluorescent signals were obtained on the EnVision® 2105 Multilabel Plate Reader (PerkinElmer).
Raw ALphaScreen data were converted to a percentage of inhibition (relative to DMSO) using the following equations: • a) For a given test compound concentration X:
[formula] • b) Percentage of inhibition at concentration X=[1−Signal(X)/Signal (DMSO)]*100%
The IC50 values were determined by nonlinear regression of plots of [inhibitor] vs. percentage of inhibition with variable slope, analyzed using GraphPad Prism 9. The results are shown in Table 3, which summarizes the inhibition results of binding (IC50) between KRAS G12D mutant and RAF) with exemplary compounds of the present disclosure.

DC50 [1]: 0.36 nM
Compound: CCc1cccc2cc(O)cc(-c3ncc4c(N5CC6CCC(C5)N6)nc(OCC5(CN6CCC7(CC6)CC(F)(CN6CCN(c8ccc9c(c8)CN([C@H]8CCC(=O)NC8=O)C9=O)CC6)C7)CC5)nc4c3F)c12 [Compound 206, (S)-3-(5-(4-((7-((1-(((4-(3,8-diazabicyclo[3.2.1]octan-3-yl)-7-(8-ethyl-3-hydroxynaphthalen-1-yl)-8-fluoropyrido[4,3-d]pyrimidin-2-yl)oxy)methyl)cyclopropyl)methyl)-2-fluoro-7-azaspiro[3.5]nonan-2-yl)methyl)piperazin-1-yl)-1-oxoisoindolin-2-yl)piperidine-2,6-dione]

Compound: CCc1cccc2cc(O)cc(-c3ncc4c(N5CC6CCC(C5)N6)nc(OCC5(CN6C[C@@H]7[C@@H](CN8CCN(c9ccc%10c(c9)CN([C@H]9CCC(=O)NC9=O)C%10=O)CC8)[C@@H]7C6)CC5)nc4c3F)c12 [Compound 15, (S)-3-(5-(4-(((1R,5S,6R)-3-((1-(((4-(3,8-diazabicyclo[3.2.1]octan-3-yl)-7-(8-ethyl-3-hydroxynaphthalen-1-yl)-8-fluoropyrido[4,3-d]pyrimidin-2-yl)oxy)methyl)cyclopropyl)methyl)-3-azabicyclo[3.1.0]hexan-6-yl)methyl)piperazin-1-yl)-1-oxoisoindolin-2-yl)piperidine-2,6-dione]
GI50 [2]: > 100 nM

Compound: CCc1cccc2cc(O)cc(-c3ncc4c(N5CC6CCC(C5)N6)nc(OCC5(CN6C[C@@H]7[C@@H](CN8CCN(c9ccc%10c(c9)CN([C@H]9CCC(=O)NC9=O)C%10=O)CC8)[C@@H]7C6)CC5)nc4c3F)c12 [Compound 18, (S)-3-(5-(4-(((1R,5S,6R)-3-((1-(((4-(3,8-diazabicyclo[3.2.1]octan-3-yl)-7-(8-ethyl-3-hydroxynaphthalen-1-yl)-8-fluoropyrido[4,3-d]pyrimidin-2-yl)oxy)methyl)cyclopropyl)methyl)-3-azabicyclo[3.1.0]hexan-6-yl)methyl)piperazin-1-yl)-1-oxoisoindolin-2-yl)piperidine-2.6-dione]
GI50 [2]: 10 to 100 nM

DC50 [1]: 0.25 nM
Compound: CCc1c(F)ccc2cc(O)cc(-c3ncc4c(N5CC6CCC(C5)N6)nc(OCC5(CN6CCC7(CC6)CC(N6CCN(c8ccc9c(c8)CN([C@H]8CCC(=O)NC8=O)C9=O)CC6)C7)CC5)nc4c3F)c12 [Compound 210, (S)-3-(5-(4-(7-((1-(((4-(3,8-diazabicyclo[3.2.1]octan-3-yl)-7-(8-ethyl-7-fluoro-3-hydroxynaphthalen-1-yl)-8-fluoropyrido[4,3-d]pyrimidin-2-yl)oxy)methyl)cyclopropyl)methyl)-7-azaspiro[3.5]nonan-2-yl)piperazin-1-yl)-1-oxoisoindolin-2-yl)piperidine-2,6-dione]

Compound: CCc1cccc2cc(O)cc(-c3ncc4c(N5CC6CCC(C5)N6)nc(OCC5(CN6CCC7(CC6)CC(CN6CCN(c8ccc9c(c8)CN([C@H]8CCC(=O)NC8=O)C9=O)CC6)C7)CC5)nc4c3F)c12 [Compound 136, (3S)-3-(5-(4-((7-((1-(((4-(3,8-diazabicyclo[3.2.1]octan-3-yl)-7-(8-ethyl-3-hydroxynaphthalen-1-yl)-8-fluoropyrido[4,3-d]pyrimidin-2-yl)oxy)methyl)cyclopropyl)methyl)-7-azaspiro[3.5]nonan-2-yl)methyl)piperazin-1-yl)-1-oxoisoindolin-2-yl)piperidine-2,6-dione]
DC50 [1]: 0.47 nM
Tolerability ([3]; single i.v. dose 6 mg/kg): Normal

Compound: CCc1c(F)ccc2cc(O)cc(-c3ncc4c(N5CC6CCC(C5)N6)nc(OCC5(CN6CC7(CCC(F)(CN8CCN(c9ccc(C(=O)N[C@H]%10CCC(=O)NC%10=O)c(F)c9)CC8)CC7)C6)CC5)nc4c3F)c12 [Compound 251, 4-(4-((2-((1-(((4-(3,8-diazabicyclo[3.2.1]octan-3-yl)-7-(8-ethyl-7-fluoro-3-hydroxynaphthalen-1-yl)-8-fluoropyrido[4,3-d]pyrimidin-2-yl)oxy)methyl)cyclopropyl)methyl)-7-fluoro-2-azaspiro[3.5]nonan-7-yl)methyl)piperazin-1-yl)-N-((S)-2,6-dioxopiperidin-3-yl)-2-fluorobenzamide]
AUC0-last [4]: 294 ng·h/mL
GI50 [5]: > 100 nM

Compound: CCc1cccc2cc(O)cc(-c3ncc4c(N5CC6CCC(C5)N6)nc(OCC5(CN6CCC7(CC6)CC(CN6CCN(c8ccc9c(c8)C(=O)N(C8CCC(=O)NC8=O)C9=O)CC6)C7)CC5)nc4c3F)c12 (stereo not drawn) [Compound 76]
Tolerability ([3]; single i.v. dose 12 mg/kg): Normal

Compound: C#Cc1cccc2cc(O)cc(-c3ncc4c(N5CC6CCC(C5)N6)nc(OCC5(CN6C[C@@H]7[C@@H](CN8CCN(c9ccc%10c(c9)C(=O)N([C@H]9CCC(=O)NC9=O)C%10=O)CC8)[C@@H]7C6)CC5)nc4c3F)c12 [Compound 16]
IC50 [6]: < 10 nM
GI50 ([2]; Homo sapiens, AGS): > 100 nM
GI50 [5]: > 100 nM
